Results reported in the NIST ThermoML archive (doi:10.1016/j.jct.2012.03.014).

Test: cn = amount concentration of the nth substance listed, in mol/dm3
Conditions: 298.15 K, 101 kPa, Liquid, Taylor dispersion method

CC(=O)Nc1ccc(O)cc1 [N-acetyl-p-aminophenol] + O
Conditions	binary diffusion coefficient [m2/s]
c1 = 0.001	6.63e-10
c1 = 0.003	6.59e-10
c1 = 0.005	6.54e-10
c1 = 0.01	6.5e-10
c1 = 0.03	6.29e-10
c1 = 0.05	6.21e-10
